Measurements taken from publication PMC11793105, “A kalihinol analog disrupts apicoplast function and vesicular trafficking in P. falciparum malaria” (Science (New York, N.Y.), 2024).

Tests used:
[1] = system: P. falciparum 3D7 parasites; test: Isopentenyl pyrophosphate (IPP) rescue assay; assay type: cell-based, Plasmodium falciparum; settings: drug at IC80 for one IEC before IPP (200 μM)
Text: Fig. 2. […] Nuclei are stained with 4’,6-diamidino-2-phenylindole (DAPI; blue). […] (B) Dose-dependent interactions between MED6-189 (blue) and various antimalarials with known mechanisms of action (red). […] The regression line represents a nonlinear regression (variable slope with four parameters), with significant differences considered if P < 0.05. […] Isobologram curves are expected to be parallel to the diagonal for additive drug pairs, concave for synergistic drug pairs, and convex for antagonistic drug pairs. […] The analysis was performed using a two-way ANOVA, n = 3, with P < 0.05 significance.
IPP is a product of the MEP/DOXP pathway, and its supplementation reduces susceptibility to MEP inhibitors. […] Parasites were drugged at 80% inhibitory concentrations (IC80) for one IEC before IPP (200 μM) supplementation.

P. falciparum cultures = test: Exponential killing rate at IC80; assay type: cell-based, Plasmodium falciparum; settings: triplicate

Q: Which results are given for O=CN(O)CCCP(=O)(O)O [fosmidomycin, reference compound]?
A: rescue of parasites by IPP supplementation [1]: survived the second IEC and initiated a third cycle; Exponential killing rate k = (1/t)* log10(N0/Nt) (P. falciparum cultures; at IC80, 48 HPS): 0.007019; Exponential killing rate k = (1/t)* log10(N0/Nt) (P. falciparum cultures; at IC80, 72 HPS): 0.01081; Exponential killing rate k = (1/t)* log10(N0/Nt) (P. falciparum cultures; at IC80, 100 HPS): 0.008797
